Laboratory results taken from patent US10647677B2, “Analogues of hydroxychloroquine (HCQ) without retinal toxicity” (Inoviem Scientific, priority 2015, dated 2020).
Read-outs that look alike come from different tables or passages of the source.

Key:
αB-crystalline (αB-C) = biological target: T1, αB-crystalline (αB-C) (Homo sapiens, UniProt P02511); experiment: Surface plasmon resonance (Biacore 3000) affinity on αB-crystalline; assay type: binding; details: SPR at 25° C.; for Kd: read-out: Kd (M) on crystallin
T1 construct: purchased
T1 sequence (P02511 1-175): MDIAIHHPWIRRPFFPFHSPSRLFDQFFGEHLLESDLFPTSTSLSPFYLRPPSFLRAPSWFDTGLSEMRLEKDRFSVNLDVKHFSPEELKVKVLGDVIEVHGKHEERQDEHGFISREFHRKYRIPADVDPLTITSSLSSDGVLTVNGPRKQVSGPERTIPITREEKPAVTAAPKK
Method: (§1) Using the surface plasmon resonance technology (Biacore 3000), the interaction constants between HCQ analogues (HCQa) and myeloperoxidase (MPO) targets and αB-crystalline (αB-C) were measured at 25° C. according to 12 different series of experiments. First, HCQ analogues at five different concentrations (10^−6 to 10^−8 M) were injected at a rate of 10^−6 L/min for 250 s on the MPO and αB-C targets as well as on the ERK1 and ERK2 controls, followed by a dissociation phase of 150 s.
(§2) The kinetic parameters were measured using the BIAevaluation 4.1 software. The set of resonance unit values obtained with the controls were subtracted from those obtained with MPO and αB-C to compensate for non-specific bonds.
(§3) The differences in Kd values for the myeloperoxidase (MPO) and αB-crystalline (αB-C) enzymes in Tables 1 and 2 are due to the variability of commercial batches. Nevertheless, the difference between the Kd of the compounds HCQ and CB137 remains identical according to these two tests.
(§4) Analysis of the compounds in the form of sulphate salts according to the method described above: […]

myeloperoxidase (MPO) = biological target: T2, myeloperoxidase (MPO) (Homo sapiens, UniProt P05164); experiment: Surface plasmon resonance (Biacore 3000) affinity on MPO; assay type: binding; details: SPR at 25° C.
T2 construct: purchased
T2 sequence (P05164 49-745): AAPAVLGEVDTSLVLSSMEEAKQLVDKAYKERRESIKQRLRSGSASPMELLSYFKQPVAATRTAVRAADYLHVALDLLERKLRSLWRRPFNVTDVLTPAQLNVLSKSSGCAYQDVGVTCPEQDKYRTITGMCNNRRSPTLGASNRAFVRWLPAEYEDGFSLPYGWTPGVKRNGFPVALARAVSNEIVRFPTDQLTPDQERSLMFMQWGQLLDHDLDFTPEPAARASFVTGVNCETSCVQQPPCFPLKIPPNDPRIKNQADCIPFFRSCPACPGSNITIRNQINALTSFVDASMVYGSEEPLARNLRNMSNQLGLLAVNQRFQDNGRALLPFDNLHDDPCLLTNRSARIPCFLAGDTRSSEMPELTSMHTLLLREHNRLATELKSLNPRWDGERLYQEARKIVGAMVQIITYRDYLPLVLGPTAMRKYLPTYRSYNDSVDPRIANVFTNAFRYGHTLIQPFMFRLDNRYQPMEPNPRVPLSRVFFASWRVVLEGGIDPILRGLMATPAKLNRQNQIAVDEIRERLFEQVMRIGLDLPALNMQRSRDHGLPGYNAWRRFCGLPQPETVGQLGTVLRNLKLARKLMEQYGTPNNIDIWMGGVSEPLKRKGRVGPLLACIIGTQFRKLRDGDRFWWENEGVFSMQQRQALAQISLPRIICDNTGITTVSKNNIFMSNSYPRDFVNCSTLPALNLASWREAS
Method: as §1, §2, §3, §4

[1] = Table 2, compounds in the form of sulphate salts

Q: With `CCN(CCO)CCCC(C)Nc1ccnc2cc(Cl)ccc12` (single isomer, unassigned) [CB133] as the compound, how does the Kd (αB-crystalline (αB-C); Table 1) read?
A: The Kd was 2.19e-09 M.

Q: And the Kd (myeloperoxidase (MPO); Table 1)?
A: The Kd was 711 nM.

Q: Which results are given for `CCN(CCO)CCCC(C)Nc1c(C#N)cnc2cc(Cl)ccc12` (stereo not drawn) [CB029]?
A: Kd (αB-crystalline (αB-C); Table 1): 3.5e-08 M; Kd (myeloperoxidase (MPO); Table 1): 71 nM

Q: `CCN(CCO)CCCC(C)Nc1c(Cl)cnc2cc(Cl)ccc12` (stereo not drawn) [CB072] was tested. Which Kd (αB-crystalline (αB-C); Table 1) did it give?
A: Its Kd is 1.6e-07 M.

Q: What about the Kd (myeloperoxidase (MPO); Table 1) of the same compound?
A: The Kd was 1.1 nM.

Q: `CCN(CCO)CCCC(C)Nc1c(C(=O)C2CC2)cnc2cc(Cl)ccc12` (stereo not drawn) [CB103] was tested. Which Kd (αB-crystalline (αB-C); Table 1) did it give?
A: The Kd was 6.6e-07 M.

Q: And the Kd (myeloperoxidase (MPO); Table 1)?
A: The Kd was 36 nM.

Q: What does the source list for `CCN(CCO)CCCC(C)Nc1c(C(F)(F)F)cnc2cc(Cl)ccc12` (stereo not drawn) [CB108]?
A: Kd (αB-crystalline (αB-C); Table 1): 8.1e-07 M; Kd (myeloperoxidase (MPO); Table 1): 14 nM

Q: How did the Kd (αB-crystalline (αB-C); Table 1) turn out when `CCN(CCO)CCCC(C)Nc1c(C(=O)C(F)(F)F)cnc2cc(Cl)ccc12` (stereo not drawn) [CB114] was run?
A: The Kd was 2.2e-05 M.

Q: And the Kd (myeloperoxidase (MPO); Table 1)?
A: The Kd was 60 nM.

Q: How did the Kd (αB-crystalline (αB-C); [1]) turn out when `CCN(CCO)CCCC(C)Nc1ccnc2cc(Cl)cc(Cl)c12` (stereo not drawn) [CB300] was run?
A: The Kd was 0.0002 M.

Q: And the Kd (myeloperoxidase (MPO); [1])?
A: Its Kd is 4000 nM.

Q: `CCN(CCO)CCCC(C)Nc1ccnc2c(Cl)c(Cl)ccc12` (stereo not drawn) [CB317] was tested. Which Kd (myeloperoxidase (MPO); [1]) did it give?
A: The Kd was 9000 nM.

Q: Which Kd (αB-crystalline (αB-C); [1]) does the source give for `CCN(CCO)CCC[C@@H](C)Nc1ccnc2cc(Cl)cc(Cl)c12` [CB321 R-enantiomer] here?
A: The Kd was 1e-05 M.

Q: What about the Kd (myeloperoxidase (MPO); [1]) of the same compound?
A: The Kd was 7000 nM.

Q: `CCN(CCO)CCC[C@@H](C)Nc1c(Cl)cnc2cc(Cl)ccc12` [CB323 R-enantioer] was tested. Which Kd (αB-crystalline (αB-C); [1]) did it give?
A: Its Kd is 0.0002 M.

Q: And the Kd (myeloperoxidase (MPO); [1])?
A: Its Kd is 90 nM.

Q: `CCN(CCO)CCCC(C)Nc1c(C2CC2)cnc2cc(Cl)ccc12` (stereo not drawn) [CB341] was tested. Which Kd (αB-crystalline (αB-C); [1]) did it give?
A: Its Kd is 2e-05 M.

Q: And the Kd (myeloperoxidase (MPO); [1])?
A: Its Kd is 5000 nM.

Q: With `CCOC(=O)c1cnc2cc(Cl)ccc2c1NC(C)CCCN(CC)CCO` (stereo not drawn) [NT36F9] as the compound, how does the “Kd (M) on crystallin” value (αB-crystalline (αB-C); Table 1) read?
A: The value was “Kd not measurable because below the detection threshold”.

Q: And the Kd (myeloperoxidase (MPO); Table 1)?
A: Its Kd is 7.5 nM.

Q: Which “Kd (M) on crystallin” value (αB-crystalline (αB-C); Table 1) does the source give for `C#CCOCc1cnc2cc(Cl)ccc2c1NC(C)CCCN(CC)CCO` (stereo not drawn) [NT69] here?
A: Its value is “Kd not measurable because below the detection threshold”.
